This note sets out measurements from patent US7115740B2, “Pyrimido compounds having antiproliferative activity” (Hoffmann-la Roche Inc., priority 2003, dated 2006).

Structures are written as SMILES.

In turn, `COc1ccc(N2Cc3cnc(Nc4ccccc4)nc3N([C@H](C)CO)C2=O)cc1` [Example 23d, (R)-(−)-1-(2-hydroxy-1-methyl-ethyl)-3-(4-methoxy-phenyl)-7-phenylamino-3,4-dihydro-1H-pyrimido[4,5-d]pyrimidin-2-one] displayed a melting point of 156 to 163 °C.

Turning to `COc1ccc(N2Cc3cnc(Nc4ccccc4)nc3N(C[C@@H](C)O)C2=O)cc1` [Example 28d, (R)-(−)-1-(2-hydroxy-propyl)-3-(4-methoxy-phenyl)-7-phenylamino-3,4-dihydro-1H-pyrimido[4,5-d]pyrimidin-2-one], the melting point is 189 to 193 °C.

In the case of `COc1ccc(N2Cc3cnc(Nc4ccccc4)nc3N([C@@H](C)CO)C2=O)cc1` [Example 15d, (S)-(+)-1-(2-hydroxy-1-methyl-ethyl)-3-(4-methoxy-phenyl)-7-phenylamino-3,4-dihydro-1H-pyrimido[4,5-d]pyrimidin-2-one], the melting point is 140 to 147 °C.

Compound `COc1ccc(N2Cc3cnc(Nc4ccccc4)nc3N(C[C@H](C)O)C2=O)cc1` [Example 31d, (S)-(+)-1-(2-hydroxy-propyl)-3-(4-methoxy-phenyl)-7-phenylamino-3,4-dihydro-1H-pyrimido[4,5-d]pyrimidin-2-one] showed a melting point of 188 to 193 °C.

Compound `COc1ccc(N2Cc3cnc(Nc4ccc(F)cc4)nc3N([C@@H](C)CO)C2=O)c(F)c1` [Example 21b, (S)-(+)-3-(2-fluoro-4-methoxy-phenyl)-7-(4-fluoro-phenylamino)-1-(2-hydroxy-1-methyl-ethyl)-3,4-dihydro-1H-pyrimido[4,5-d]pyrimidin-2-one] returned a melting point of 173 to 177 °C.
